According to PubChem BioAssay AID2060883 (Molecular Pharmacology Branch, DTP, NCI, 2025):

System: 843782-103-R-J1-PDC complex spheroid viability
Test: Anticancer human tumor 843782-103-R-J1-PDC patient-derived lung adenocarcinoma cell line growth inhibition [RAS]
Conditions: for viability, T/C: stronger effect = lower value
Summary of the method: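 Agents were tested in combination matrices in half-log decrements from a top concentration at or near clinical Cmax (10 microM if undetermined). Targets were multi-cell spheroids of tumour lines plus HUVEC and MSC stromal cells.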

[1] = curve of first compound, second compound 0.000949 µM
[2] = curve of first compound, second compound 0.003 µM
[3] = curve of first compound, second compound 0.00949 µM
[4] = curve of first compound, second compound 0.03 µM
[5] = curve of first compound, second compound 0.0949 µM
[6] = curve of first compound, second compound 0.3 µM
[7] = second compound 0.000949 µM, first compound 0.0316 µM
[8] = second compound 0.000949 µM, first compound 0.1 µM
[9] = second compound 0.000949 µM, first compound 0.316 µM
[10] = second compound 0.000949 µM, first compound 1 µM
[11] = second compound 0.003 µM, first compound 0.0316 µM
[12] = second compound 0.003 µM, first compound 0.1 µM
[13] = second compound 0.003 µM, first compound 0.316 µM
[14] = second compound 0.003 µM, first compound 1 µM
[15] = second compound 0.00949 µM, first compound 0.0316 µM
[16] = second compound 0.00949 µM, first compound 0.1 µM
[17] = second compound 0.00949 µM, first compound 0.316 µM
[18] = second compound 0.00949 µM, first compound 1 µM
[19] = second compound 0.03 µM, first compound 0.0316 µM
[20] = second compound 0.03 µM, first compound 0.1 µM
[21] = second compound 0.03 µM, first compound 0.316 µM
[22] = second compound 0.03 µM, first compound 1 µM
[23] = second compound 0.0949 µM, first compound 0.0316 µM
[24] = second compound 0.0949 µM, first compound 0.1 µM
[25] = second compound 0.0949 µM, first compound 0.316 µM
[26] = second compound 0.0949 µM, first compound 1 µM
[27] = second compound 0.3 µM, first compound 0.0316 µM
[28] = second compound 0.3 µM, first compound 0.1 µM
[29] = second compound 0.3 µM, first compound 0.316 µM
[30] = second compound 0.3 µM, first compound 1 µM
[31] = second compound 0.000949 µM, first compound 0.00316 µM
[32] = second compound 0.000949 µM, first compound 0.01 µM
[33] = second compound 0.003 µM, first compound 0.00316 µM
[34] = second compound 0.003 µM, first compound 0.01 µM
[35] = second compound 0.00949 µM, first compound 0.00316 µM
[36] = second compound 0.00949 µM, first compound 0.01 µM
[37] = second compound 0.03 µM, first compound 0.00316 µM
[38] = second compound 0.03 µM, first compound 0.01 µM
[39] = second compound 0.0949 µM, first compound 0.00316 µM
[40] = second compound 0.0949 µM, first compound 0.01 µM
[41] = second compound 0.3 µM, first compound 0.00316 µM
[42] = second compound 0.3 µM, first compound 0.01 µM
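Further: viability read after seven days of compound exposure.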

CC(=O)OC12COC1CC(O)C1(C)C(=O)C(O)C3=C(C)C(OC(=O)C(O)C(NC(=O)OC(C)(C)C)c4ccccc4)CC(O)(C(OC(=O)c4ccccc4)C21)C3(C)C (stereo not drawn) + CCn1c(-c2cc(N3CCN(C)CC3)cnc2C(C)OC)c2c3cc(ccc31)-c1csc(n1)CC(NC(=O)C1CC1C)C(=O)N1CCCC(N1)C(=O)OCC(C)(C)C2
IC50 [1]: < 31.6 nM | IC50 [2]: < 31.6 nM | IC50 [3]: < 31.6 nM | IC50 [4]: < 31.6 nM | IC50 [5]: < 31.6 nM | IC50 [6]: < 31.6 nM | viability, T/C [7]: 4.09% | viability, T/C [8]: 3.3% | viability, T/C [9]: 4.43% | viability, T/C [10]: 4.14% | viability, T/C (second compound 0.000949 µM, first compound 3.16 µM): 4.74% | viability, T/C (second compound 0.000949 µM, first compound 10 µM): 5.86% | viability, T/C [11]: 3.09% | viability, T/C [12]: 3.12% | viability, T/C [13]: 3.99% | viability, T/C [14]: 3.29% | viability, T/C (second compound 0.003 µM, first compound 3.16 µM): 6.91% | viability, T/C (second compound 0.003 µM, first compound 10 µM): 8.55% | viability, T/C [15]: 4.74% | viability, T/C [16]: 4.97% | viability, T/C [17]: 5.9% | viability, T/C [18]: 4.93% | viability, T/C (second compound 0.00949 µM, first compound 3.16 µM): 5.8% | viability, T/C (second compound 0.00949 µM, first compound 10 µM): 8.1% | viability, T/C [19]: 5.08% | viability, T/C [20]: 4.74% | viability, T/C [21]: 7.03% | viability, T/C [22]: 5.84% | viability, T/C (second compound 0.03 µM, first compound 3.16 µM): 6.77% | viability, T/C (second compound 0.03 µM, first compound 10 µM): 7.36% | viability, T/C [23]: 6.75% | viability, T/C [24]: 7.55% | viability, T/C [25]: 6% | viability, T/C [26]: 8.09% | viability, T/C (second compound 0.0949 µM, first compound 3.16 µM): 7.2% | viability, T/C (second compound 0.0949 µM, first compound 10 µM): 7.32% | viability, T/C [27]: 6.51% | viability, T/C [28]: 6.53% | viability, T/C [29]: 8.66% | viability, T/C [30]: 8.26% | viability, T/C (second compound 0.3 µM, first compound 3.16 µM): 9.04% | viability, T/C (second compound 0.3 µM, first compound 10 µM): 7.8%

CCc1c2c(nc3ccc(O)cc13)-c1cc3c(c(=O)n1C2)COC(=O)[C@]3(O)CC
viability, T/C (compound 0.000949 µM): 94.2% [middle of 4 runs] | viability, T/C (compound 0.003 µM): 26% [middle of 4 runs] | viability, T/C (compound 0.00949 µM): 6.94% [middle of 4 runs] | viability, T/C (compound 0.03 µM): 3.31% [middle of 4 runs] | viability, T/C (compound 0.0949 µM): 1.33% [middle of 4 runs] | viability, T/C (compound 0.3 µM): 0.94% [middle of 4 runs] | IC50 (curve of compound): 1.88 nM [middle of 4 runs]

CC(C)n1nc(-c2ccc3oc(N)nc3c2)c2c(N)ncnc21 + CCn1c(-c2cc(N3CCN(C)CC3)cnc2C(C)OC)c2c3cc(ccc31)-c1csc(n1)CC(NC(=O)C1CC1C)C(=O)N1CCCC(N1)C(=O)OCC(C)(C)C2
IC50 [1]: 5.34 nM | IC50 [2]: 3.42 nM | IC50 [3]: < 0.316 nM | IC50 [4]: < 0.316 nM | IC50 [5]: < 0.316 nM | IC50 [6]: < 0.316 nM | viability, T/C (second compound 0.000949 µM, first compound 0.000316 µM): 73% | viability, T/C (second compound 0.000949 µM, first compound 0.001 µM): 70.4% | viability, T/C [31]: 58.7% | viability, T/C [32]: 38.6% | viability, T/C [7]: 24.8% | viability, T/C [8]: 13.5% | viability, T/C (second compound 0.003 µM, first compound 0.000316 µM): 49.6% | viability, T/C (second compound 0.003 µM, first compound 0.001 µM): 57.5% | viability, T/C [33]: 52.5% | viability, T/C [34]: 27.7% | viability, T/C [11]: 19.7% | viability, T/C [12]: 11% | viability, T/C (second compound 0.00949 µM, first compound 0.000316 µM): 36.5% | viability, T/C (second compound 0.00949 µM, first compound 0.001 µM): 36.6% | viability, T/C [35]: 28.2% | viability, T/C [36]: 19.7% | viability, T/C [15]: 11.6% | viability, T/C [16]: 7.59% | viability, T/C (second compound 0.03 µM, first compound 0.000316 µM): 22.3% | viability, T/C (second compound 0.03 µM, first compound 0.001 µM): 19.4% | viability, T/C [37]: 13.2% | viability, T/C [38]: 12.6% | viability, T/C [19]: 7.81% | viability, T/C [20]: 4.67% | viability, T/C (second compound 0.0949 µM, first compound 0.000316 µM): 15.6% | viability, T/C (second compound 0.0949 µM, first compound 0.001 µM): 13.8% | viability, T/C [39]: 12.8% | viability, T/C [40]: 10.3% | viability, T/C [23]: 7.44% | viability, T/C [24]: 4.77% | viability, T/C (second compound 0.3 µM, first compound 0.000316 µM): 13.9% | viability, T/C (second compound 0.3 µM, first compound 0.001 µM): 13.4% | viability, T/C [41]: 10.7% | viability, T/C [42]: 9.85% | viability, T/C [27]: 6.87% | viability, T/C [28]: 3.78%

O=C(c1ccc(F)c(F)c1Nc1ccc(I)cc1F)N1CC(O)([C@@H]2CCCCN2)C1 + CCn1c(-c2cccnc2C(C)OC)c2c3cc(ccc31)N1CCOC(CC(NC(=O)C(C(C)C)N(C)C(=O)C3(F)CCN(C(=O)C#CC(C)(C)N(C)C)CC3)C(=O)N3CCCC(N3)C(=O)OCC(C)(C)C2)C1
IC50 [1]: 18.2 nM | IC50 [2]: 17.4 nM | IC50 [3]: 22 nM | IC50 [4]: 14.8 nM | IC50 [5]: 24.3 nM | IC50 [6]: 16.2 nM | viability, T/C [31]: 74.1% | viability, T/C [32]: 56.1% | viability, T/C [7]: 42.7% | viability, T/C [8]: 31.9% | viability, T/C [9]: 20.1% | viability, T/C [10]: 11.8% | viability, T/C [33]: 72.2% | viability, T/C [34]: 49.3% | viability, T/C [11]: 43.2% | viability, T/C [12]: 35.1% | viability, T/C [13]: 20.1% | viability, T/C [14]: 9.69% | viability, T/C [35]: 69.7% | viability, T/C [36]: 58% | viability, T/C [15]: 47.1% | viability, T/C [16]: 30.9% | viability, T/C [17]: 19.2% | viability, T/C [18]: 11.9% | viability, T/C [37]: 58.6% | viability, T/C [38]: 58.1% | viability, T/C [19]: 38.9% | viability, T/C [20]: 27.9% | viability, T/C [21]: 20.1% | viability, T/C [22]: 12.3% | viability, T/C [39]: 75% | viability, T/C [40]: 61.4% | viability, T/C [23]: 43.7% | viability, T/C [24]: 36.5% | viability, T/C [25]: 22.9% | viability, T/C [26]: 11.7% | viability, T/C [41]: 62.9% | viability, T/C [42]: 59.7% | viability, T/C [27]: 38.2% | viability, T/C [28]: 26.8% | viability, T/C [29]: 23.2% | viability, T/C [30]: 13.9%
